Test results published in publication PMC8242589, “Cardiac Safety of Kinase Inhibitors – Improving Understanding and Prediction of Liabilities in Drug Discovery Using Human Stem Cell-Derived Models” (Frontiers in Cardiovascular Medicine, 2021).

What was measured:
[1] = system: hSC-CMs (Cor.4U Cardiomyocytes); test: ATP assay (CellTiter-Glo Luminescent Cell Viability Assay); assay type: cell-based, human; details: for viability at 0.01 µM / viability at 0.1 µM / viability at 1 µM / viability at 10 µM: Homo sapiens, Cardiomyocyte; for viability at 0.01 µM / viability at 0.1 µM / viability at 1 µM / viability at 10 µM / ATP: normalized to time-matched DMSO control
Procedure: Cor.4U® Cardiomyocytes (Ncardia, Netherlands) were cultured in 96-well plates at density of 25,000 – 30,000 cells per well. Cells were maintained at 5% CO2 and 37 °C for 4 days prior to experiments. The cell culture medium (Cor4U® Complete Culture Medium, cat# Ax-M-HC250E, Axiogenesis AG, Cologne, Germany) was changed every 24 h and was replaced by serum-free BMCC medium (cat# Ax-M-BMCC259, Axiogenesis AG, Cologne, Germany) 12 h prior to drug addition.
The CellTiter-Glo Luminescent Cell Viability Assay (cat# G7572, Promega, USA) was performed for quantification of the cellular ATP concentration according to manufacturer's instructions. Plates were shaken for 2 min in the dark, incubated at ambient temperature for 10 min before measuring luminescence (Integration time 0.1 seconds per well) with Luminescence Counter (Synergy H1, BioTek Instruments, Inc., Winooski, Vermont). The measured ATP concentration values were normalized to the time-matched DMSO controls. Data are representative of at least three replicates per concentration.

[2] = system: hSC-CMs (Cor.4U Cardiomyocytes); test: CardioExcyte 96 impedance and EFP recording (beating rate, base impedance); assay type: cell-based, human; details: for activity at 0.01 µM / activity at 0.1 µM / activity at 1 µM / activity at 10 µM: Homo sapiens, Cardiomyocyte; for activity at 0.01 µM / activity at 0.1 µM / activity at 1 µM / activity at 10 µM / BR / Base Imp: vs baseline before drug (taken as 100%)
Procedure: Cor.4U® Cardiomyocytes (Ncardia, Netherlands) were cultured in 96-well plates at density of 25,000 – 30,000 cells per well. Cells were maintained at 5% CO2 and 37 °C for 4 days prior to experiments.
Functional monitoring of cardiomyocytes was done using CardioExcyte® 96 (Nanion technologies GmbH, Germany). Extracellular field potential (EFP) and impedance signals were recorded from hSC-CMs that formed monolayers in the wells of the NSP-96 plate. Beating Rate (BR, per minute) was calculated as the reciprocal of the inter-spike interval (ISI) in EFP signal. Impedance signals from spontaneously beating hSC-CMs were recorded with a sampling rate of 1 ms (1 kHz), and EFP data were collected at 0.1ms (10 kHz). Data acquisition was controlled by CardioExcyte® 96 Control software as previously described ([22]). The functional parameters recorded in each concentration of test items were compared to the base line values before drug addition (taken as 100%) to define fractional change.

[3] = system: PI3K p110β; details: ref [23]–[25] (NVP-BEZ235), [27] (LY 294002), [28] (GDC-0941), [32] (TGX-221), [33] (CAL-101), [35] (CZC24832); read-out: Target IC50 p110β; cited from earlier work
[4] = system: hSC-CMs (Cor.4U Cardiomyocytes); test: Apoptosis assay (CellEvent Caspase-3/7 Green, IncuCyte ZOOM kinetics over 24 h); assay type: cell-based, human; set-up: key to Caspase / Caspase MEAN: % of time-matched vehicle control (green object area); details: for activity at 0.01 µM / activity at 0.1 µM / activity at 1 µM / activity at 10 µM: Homo sapiens, Cardiomyocyte; for activity at 0.01 µM / activity at 0.1 µM / activity at 1 µM / activity at 10 µM / Caspase: normalized to time-matched vehicle control
Procedure: Cor.4U® Cardiomyocytes ([…], Netherlands) were cultured in 96-well plates at density of 25,000 - 30,000 cells per well. Cells were maintained at 5% CO2 and 37 °C for 4 days prior to experiments. […] The plates were incubated 2 h before compound treatment in the IncuCyte ZOOM (ESSEN BioScience, Ann Arbor, Michigan) to set a baseline before the 24 h compound treatment. […] Imaging was done using 10x microscope objective of the IncuCyteZOOM with four images per well-taken every 2 h in both phase-contrast and green fluorescence. The fluorescent nuclear signal of the apoptotic cells was separated from background with the integrated object counting algorithm, adjusted to cardiomyocytes, and the calculated total green object area per well (μm^2/well) plotted against time. Data were normalized to those of the time-matched vehicle control. Data were representative of at least three replicates per concentration.

[5] = system: PI3K p110γ; details: ref [23]–[25] (NVP-BEZ235), [28] (GDC-0941), [33] (CAL-101), [35] (CZC24832); read-out: Target IC50 p110γ; cited from earlier work
[6] = system: ROCK2; details: ref [36] (RKI-1447), [37], [38] (Fasudil), [39]–[43] (Y-27632), [44], [45] (GSK-429286); read-out: Target IC50 ROCK2; cited from earlier work

For `CC(C)(C)NS(=O)(=O)c1cncc(-c2cc(F)c3nc(N)nn3c2)c1` [CZC24832], the viability at 0.01 µM ([1]; 2h) was 100%, the viability at 0.01 µM ([1]; 24h) was 100% and the viability at 0.1 µM ([1]; 2h) was 99%. It also gave a viability at 0.1 µM ([1]; 24h) of 97%, a viability at 1 µM ([1]; 2h) of 99% and a viability at 1 µM ([1]; 24h) of 97%. The viability at 10 µM ([1]; 2h) was 101%, the viability at 10 µM ([1]; 24h) was 100% and the “Effect on ATP level, in words” value ([1]; hSC-CMs, up to the highest test concentrations) was “did not have any effect”. It also gave an activity at 0.01 µM ([2]; 2h, read-out: BR) of 100%, an activity at 0.01 µM ([2]; 2h, read-out: Base Imp) of 98% and an activity at 0.01 µM ([2]; 24h, read-out: BR) of 96%. The activity at 0.01 µM ([2]; 24h, read-out: Base Imp) was 99%, the activity at 0.1 µM ([2]; 2h, read-out: BR) was 95% and the activity at 0.1 µM ([2]; 2h, read-out: Base Imp) was 98%. For the same molecule, the activity at 0.1 µM ([2]; 24h, read-out: BR) was 98%, the activity at 0.1 µM ([2]; 24h, read-out: Base Imp) was 97% and the activity at 1 µM ([2]; 2h, read-out: BR) was 97%. The activity at 1 µM ([2]; 2h, read-out: Base Imp) was 96%, the activity at 1 µM ([2]; 24h, read-out: BR) was 98% and the activity at 1 µM ([2]; 24h, read-out: Base Imp) was 93%. The activity at 10 µM ([2]; 2h, read-out: BR) was 94%, the activity at 10 µM ([2]; 2h, read-out: Base Imp) was 93% and the activity at 10 µM ([2]; 24h, read-out: BR) was 97%. For the same molecule, the activity at 10 µM ([2]; 24h, read-out: Base Imp) was 89%, the “Change in the hSC-CMs parameters (surface plots: beating rate, base impedance, ATP)” value ([2]; hSC-CMs, 2 and 24 h) was “below 20%” and the “Effect on hSC-CMs function (base impedance and beating rate), in words” value ([2]; hSC-CMs, 2 and 24 h) was “did not have any effect”. For the same molecule, the IC50 [3] was 1100 nM, the activity at 0.01 µM ([4]; 2h) was 87% and the activity at 0.01 µM ([4]; 24h) was 79%. For the same molecule, the activity at 0.1 µM ([4]; 2h) was 132%, the activity at 0.1 µM ([4]; 24h) was 88% and the activity at 1 µM ([4]; 2h) was 109%. It also gave an activity at 1 µM ([4]; 24h) of 68%, an activity at 10 µM ([4]; 2h) of 102% and an activity at 10 µM ([4]; 24h) of 76%. For the same molecule, the “Apoptosis (caspase-3/7 activation), result in words” value ([4]; hSC-CMs, monitored over 24 h) was “no effect” and the IC50 [5] was 27 nM.

For `C[C@@H](N)C1CCC(C(=O)Nc2ccncc2)CC1.Cl.Cl` (stereo partly drawn) [Y-27632], the ATP ([1]; 0.3 µM, 2h) was 105, the ATP ([1]; 0.3 µM, 24h) was 100 and the ATP ([1]; 3 µM, 2h) was 102. For the same molecule, the ATP ([1]; 3 µM, 24h) was 101, the ATP ([1]; 30 µM, 2h) was 103 and the ATP ([1]; 30 µM, 24h) was 103. For the same molecule, the ATP ([1]; 300 µM, 2h) was 109, the ATP ([1]; 300 µM, 24h) was 104 and the “Effect on beating rate, in words” value [2] was “reduced cardiomyocyte beating at both 2 h and 24 h time points”. The BR ([2]; 0.3 µM, 2h) was 101, the “Base Imp” value ([2]; 0.3 µM, 2h) was 89 and the BR ([2]; 0.3 µM, 24h) was 95. The “Base Imp” value ([2]; 0.3 µM, 24h) was 88, the BR ([2]; 3 µM, 2h) was 99 and the “Base Imp” value ([2]; 3 µM, 2h) was 89. For the same molecule, the BR ([2]; 3 µM, 24h) was 100, the “Base Imp” value ([2]; 3 µM, 24h) was 85 and the BR ([2]; 30 µM, 2h) was 99. For the same molecule, the “Base Imp” value ([2]; 30 µM, 2h) was 80, the BR ([2]; 30 µM, 24h) was 101 and the “Base Imp” value ([2]; 30 µM, 24h) was 67. The BR ([2]; 300 µM, 2h) was 76, the “Base Imp” value ([2]; 300 µM, 2h) was 61 and the BR ([2]; 300 µM, 24h) was 68. The “Base Imp” value ([2]; 300 µM, 24h) was 54, the “Secondary beats at 300 uM, MEAN” value ([2]; 300 uM, unlabelled side calculation under the 24h data) was 103.939 and the IC50 [6] was 89 nM. The Caspase ([4]; 0.3 µM, 2h) was 119, the Caspase ([4]; 0.3 µM, 24h) was 94 and the Caspase ([4]; 3 µM, 2h) was 163. It also gave a Caspase ([4]; 3 µM, 24h) of 129, a Caspase ([4]; 30 µM, 2h) of 104 and a Caspase ([4]; 30 µM, 24h) of 163. For the same molecule, the Caspase ([4]; 300 µM, 2h) was 96, the Caspase ([4]; 300 µM, 24h) was 306 and the “Time of notable raise in the caspase-3/7 activity” value ([4]; highest test concentrations only) was 12 to 18 h. The “Apoptosis (caspase-3/7 activity) at the highest test concentration, in words” value ([4]; top / highest test concentration, over 24 h) was “slow initial phase followed by a notable raise in the caspase-3/7 activity”.
